Assay results reported in patent US6737383B1, “Herbicidal oxadiazolidines” (priority 1999, dated 2004).

How the values were obtained:
[1] = test system: bedstraw; assay: Test B pre/postemergence bedstraw; format: in vivo, Galium aparine
Summary of the method: (§1)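 Herbicidal effect was estimated by eye on a ten-point control scale after plants spent twelve to sixteen days in a greenhouse following soil or foliar treatment. Foliar sprays targeted plants at one to four leaves; all doses were formulated in a non-phytotoxic solvent with surfactant.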

[2] = test system: blackgrass; assay: Test B pre/postemergence blackgrass; format: in vivo, Alopecurus myosuroides
Summary of the method: as §1

[3] = test system: surinam grass; assay: Test B pre/postemergence surinam grass; format: in vivo, Brachiaria decumbens
Summary of the method: as §1

[4] = test system: cocklebur; assay: Test B pre/postemergence cocklebur; format: in vivo, Xanthium strumarium
Summary of the method: as §1

[5] = test system: corn; assay: Test B pre/postemergence corn; format: in vivo, Zea mays
Summary of the method: as §1

[6] = test system: giant foxtail; assay: Test B pre/postemergence giant foxtail; format: in vivo, Setaria faberii
Summary of the method: as §1

[7] = test system: morningglory; assay: Test B pre/postemergence morningglory; format: in vivo, Ipomoea hederacea
Summary of the method: as §1

[8] = test system: pigweed; assay: Test B pre/postemergence pigweed; format: in vivo, Amaranthus retroflexus
Summary of the method: as §1

[9] = test system: rape; assay: Test B pre/postemergence rape; format: in vivo, Brassica napus
Summary of the method: as §1

[10] = test system: soybean; assay: Test B pre/postemergence soybean; format: in vivo, Glycine max
Summary of the method: as §1

[11] = test system: sugar beet; assay: Test B pre/postemergence sugar beet; format: in vivo, Beta vulgaris
Summary of the method: as §1

[12] = test system: velvetleaf; assay: Test B pre/postemergence velvetleaf; format: in vivo, Abutilon theophrasti
Summary of the method: as §1

[13] = test system: purple nutsedge; assay: Test B pre/postemergence purple nutsedge; format: in vivo, Cyperus rotundus
Summary of the method: as §1

[14] = test system: smallflower flatsedge; assay: Test B flood test smallflower flatsedge; format: in vivo, Cyperus difformis
Summary of the method: (§2)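 Plants were grown to the 2-leaf stage before treatment with test chemical, then held in a greenhouse for twelve to sixteen days. Injury was visually rated against untreated controls on a 0–10 scale, where 0 is no effect and 10 is complete control.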

[15] = test system: duck salad; assay: Test B flood test duck salad; format: in vivo, Heteranthera limosa
Summary of the method: as §2

[16] = test system: bamyardgrass; assay: Test B flood test barnyardgrass; format: in vivo, Echinochloa crus-galli
Summary of the method: as §2

[17] = Preemergence, Rate 62 g/ha, scale of 0 to 10 where 0 is no effect and 10 is complete control
[18] = Preemergence, Rate 250 g/ha, scale of 0 to 10 where 0 is no effect and 10 is complete control
[19] = Preemergence, Rate 500 g/ha, scale of 0 to 10 where 0 is no effect and 10 is complete control
[20] = Rate 62 g/ha, Postemergence, scale 0 to 10 (0 no effect, 10 complete control)
[21] = Rate 125 g/ha, Postemergence, scale of 0 to 10 where 0 is no effect and 10 is complete control
[22] = Rate 250 g/ha, Postemergence, scale of 0 to 10 where 0 is no effect and 10 is complete control
[23] = Rate 500 g/ha, Postemergence, scale 0 to 10, 0 no effect, 10 complete control
[24] = Rate 62 g/ha, headed Pre-emergence (flood test species), scale 0 to 10 (0 no effect, 10 complete control)
[25] = Rate 125 g/ha, Pre-emergence, flood test species, scale 0 to 10 where 0 is no effect and 10 is complete control
[26] = Rate 250 g/ha, Pre-emergence, flood-test species, scale 0 to 10, 0 is no effect, 10 is complete control
[27] = Rate 500 g/ha, Pre-emergence, flood test species, scale 0 to 10 (0 no effect, 10 complete control)

C=CCn1c(=O)on(C(=O)N(c2ccc(Cl)cc2)C(C)C2CC2)c1=O (centres unmarked) [Compound 325]
Bedstraw plant response rating [1, 17]: 0 | Bedstraw plant response rating (0 to 10 scale) ([1]; Preemergence, Rate 125 g/ha): 0 | Bedstraw plant response rating [1, 18]: 0 | Bedstraw plant response rating [1, 19]: 0 | Bedstraw plant response rating [1, 20]: 2 | Bedstraw plant response rating [1, 21]: 8 | Blackgrass plant response rating [2, 17]: 0 | Blackgrass plant response rating (0 to 10 scale) ([2]; Preemergence, Rate 125 g/ha): 1 | Blackgrass plant response rating [2, 18]: 2 | Blackgrass plant response rating [2, 19]: 7 | Blackgrass plant response rating [2, 20]: 0 | Blackgrass plant response rating [2, 21]: 0 | Plant response rating, Blackgrass [2, 22]: 3 | Plant response rating, Blackgrass [2, 23]: 7 | B. signalgrass plant response rating [3, 17]: 0 | B. signalgrass plant response rating (0 to 10 scale, 0 is no effect, 10 is complete control) ([3]; Preemergence, Rate 125 g/ha): 0 | B. signalgrass plant response rating [3, 18]: 0 | B. signalgrass plant response rating [3, 19]: 0 | B. signalgrass plant response rating [3, 20]: 0 | B. signalgrass plant response rating [3, 21]: 0 | Plant response rating, B. signalgrass [3, 22]: 0 | Plant response rating, B. signalgrass [3, 23]: 2 | Cocklebur plant response rating [4, 17]: 0 | Cocklebur plant response rating (0 to 10 scale) ([4]; Preemergence, Rate 125 g/ha): 0 | Cocklebur plant response rating [4, 18]: 0 | Cocklebur plant response rating [4, 19]: 0 | Cocklebur plant response rating [4, 20]: 0 | Cocklebur plant response rating [4, 21]: 0 | Plant response rating, Cocklebur [4, 22]: 0 | Plant response rating, Cocklebur [4, 23]: 3 | Corn plant response rating [5, 17]: 0 | Corn plant response rating (0 to 10 scale) ([5]; Preemergence, Rate 125 g/ha): 0 | Corn plant response rating [5, 18]: 0 | Corn plant response rating [5, 19]: 0 | Corn plant response rating [5, 20]: 0 | Corn plant response rating [5, 21]: 0 | Plant response rating, Corn [5, 22]: 0 | Plant response rating, Corn [5, 23]: 0 | Giant foxtail plant response rating [6, 17]: 3 | Giant foxtail plant response rating (0 to 10 scale) ([6]; Preemergence, Rate 125 g/ha): 7 | Giant foxtail plant response rating [6, 18]: 8 | Giant foxtail plant response rating [6, 19]: 10 | Giant foxtail plant response rating [6, 20]: 0 | Giant foxtail plant response rating [6, 21]: 0 | Plant response rating, Giant foxtail [6, 22]: 0 | Plant response rating, Giant foxtail [6, 23]: 0 | Morningglory plant response rating [7, 17]: 0 | Morningglory plant response rating (0 to 10 scale) ([7]; Preemergence, Rate 125 g/ha): 0 | Morningglory plant response rating [7, 18]: 0 | Morningglory plant response rating [7, 19]: 0 | Morningglory plant response rating [7, 20]: 4 | Morningglory plant response rating [7, 21]: 6 | Plant response rating, Morningglory [7, 22]: 8 | Plant response rating, Morningglory [7, 23]: 8 | Redroot pigweed plant response rating [8, 17]: 0 | Redroot pigweed plant response rating (0 to 10 scale) ([8]; Preemergence, Rate 125 g/ha): 0 | Redroot pigweed plant response rating [8, 18]: 0 | Redroot pigweed plant response rating [8, 19]: 0 | Redroot pigweed plant response rating [8, 20]: 0 | Redroot pigweed plant response rating [8, 21]: 0 | Plant response rating, Redroot pigweed [8, 22]: 4 | Plant response rating, Redroot pigweed [8, 23]: 7 | Rape plant response rating [9, 17]: 0 | Rape plant response rating (0 to 10 scale) ([9]; Preemergence, Rate 125 g/ha): 0 | Rape plant response rating [9, 18]: 0 | Rape plant response rating [9, 19]: 0 | Rape plant response rating [9, 20]: 0 | Rape plant response rating [9, 21]: 0 | Plant response rating, Rape [9, 22]: 0 | Plant response rating, Rape [9, 23]: 2 | Soybean plant response rating [10, 17]: 0 | Soybean plant response rating (0 to 10 scale) ([10]; Preemergence, Rate 125 g/ha): 0 | Soybean plant response rating [10, 18]: 0 | Soybean plant response rating [10, 19]: 0 | Soybean plant response rating [10, 20]: 2 | Soybean plant response rating [10, 21]: 2 | Plant response rating, Soybean [10, 22]: 1 | Plant response rating, Soybean [10, 23]: 3 | Sugarbeets plant response rating [11, 17]: 0 | Sugarbeets plant response rating (0 to 10 scale) ([11]; Preemergence, Rate 125 g/ha): 0 | Sugarbeets plant response rating [11, 18]: 0 | Sugarbeets plant response rating [11, 19]: 0 | Sugarbeets plant response rating [11, 20]: 0 | Sugarbeets plant response rating [11, 21]: 0 | Plant response rating, Sugarbeets [11, 22]: 0 | Plant response rating, Sugarbeets [11, 23]: 0 | Velvetleaf plant response rating [12, 17]: 0 | Velvetleaf plant response rating (0 to 10 scale) ([12]; Preemergence, Rate 125 g/ha): 0 | Velvetleaf plant response rating [12, 18]: 0 | Velvetleaf plant response rating [12, 19]: 0 | Velvetleaf plant response rating [12, 20]: 0 | Velvetleaf plant response rating [12, 21]: 0 | Plant response rating, Velvetleaf [12, 22]: 0 | Plant response rating, Velvetleaf [12, 23]: 2 | Nutsedge plant response rating [13, 17]: 0 | Nutsedge plant response rating (0 to 10 scale) ([13]; Preemergence, Rate 125 g/ha): 0 | Nutsedge plant response rating [13, 18]: 0 | Nutsedge plant response rating [13, 20]: 0 | Nutsedge plant response rating [13, 21]: 0 | Plant response rating, Nutsedge [13, 22]: 0 | Plant response rating, Nutsedge [13, 23]: 0 | S. Flatsedge plant response rating [14, 24]: 0 | S. Flatsedge plant response rating [14, 25]: 0 | S. Flatsedge plant response rating [14, 26]: 0 | S. Flatsedge plant response rating [14, 27]: 0 | Ducksalad plant response rating [15, 24]: 0 | Ducksalad plant response rating [15, 25]: 0 | Ducksalad plant response rating [15, 26]: 0 | Ducksalad plant response rating [15, 27]: 0 | Barnyardgrass plant response rating [16, 24]: 0 | Barnyardgrass plant response rating [16, 25]: 0 | Barnyardgrass plant response rating [16, 26]: 0 | Barnyardgrass plant response rating [16, 27]: 0
